Data set [1] concerns spontaneous intestinal adenoma formation. The data set can be described thus: C57BL/6J-APC Min-mouse model of human adenomatous polyposis coli. The following applies: 100 mg/kg orally q.d., versus vehicle-treated group. In kind it is in vivo, C57BL/6J-Apc min mice. The procedure: The ability of Compound 50 to inhibit angiogenesis and tumor growth was tested in a spontaneous tumor model. the pre-cancerous polyp formation in the mouse model of human intestinal tumorigenesis.
Transgenic C57BL/6J-Apc min mice heterozygous for a dominant nonsense Apc mutation are highly susceptible to spontaneous intestinal adenoma formation (homozygous mice are not viable). One hundred percent of these animals will develop polyps by 12 weeks of age. This model is widely used for studying prevention of intestinal adenoma formation and is well described in the literature (Yang K, Edelmann W, Fan K, et. al. A mouse model of human familial adenomatous polyposis. J Exp Zool. 1997 15; 277(3):245-54).
Female C57BL/6J-Apc^Min mice (Jackson Laboratory, MN), 5 weeks of age, were housed (up to 10 mice per group) for a minimum of one week. Animals were then sorted into treatment groups based on body weight such that the mean body weight for the animals in each group was approximately the same. Small cohorts of animals (n=6) were sacrificed at day 1, before treatment to get a baseline number of polyps (mean polyp number at beginning of study). […]
Animals in the treated group (n=10) were dosed daily with Compound 50 at 100 mg/kg orally q.d. for one week. […] The intestine of each mouse was excised, perfused, stained (0.01% Trypan Blue) and polyps were counted under 10× magnification.

Data set [2] deals with T1, CDK1:Cyclin-B (Homo sapiens, UniProt P06493).
T1 construct: purchased New England Biolabs, Beverly, Mass; 6020; host or cells: insect cells
T1 sequence (P06493 whole entry): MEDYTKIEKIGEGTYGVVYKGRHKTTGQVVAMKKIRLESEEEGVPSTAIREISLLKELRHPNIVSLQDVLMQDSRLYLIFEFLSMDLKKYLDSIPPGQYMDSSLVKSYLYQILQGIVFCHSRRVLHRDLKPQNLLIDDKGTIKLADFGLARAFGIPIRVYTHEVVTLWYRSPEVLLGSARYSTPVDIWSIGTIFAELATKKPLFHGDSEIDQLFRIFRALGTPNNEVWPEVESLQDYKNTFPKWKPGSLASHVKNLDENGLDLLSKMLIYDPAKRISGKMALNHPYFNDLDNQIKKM
T1 sequence (P14635 whole entry partner): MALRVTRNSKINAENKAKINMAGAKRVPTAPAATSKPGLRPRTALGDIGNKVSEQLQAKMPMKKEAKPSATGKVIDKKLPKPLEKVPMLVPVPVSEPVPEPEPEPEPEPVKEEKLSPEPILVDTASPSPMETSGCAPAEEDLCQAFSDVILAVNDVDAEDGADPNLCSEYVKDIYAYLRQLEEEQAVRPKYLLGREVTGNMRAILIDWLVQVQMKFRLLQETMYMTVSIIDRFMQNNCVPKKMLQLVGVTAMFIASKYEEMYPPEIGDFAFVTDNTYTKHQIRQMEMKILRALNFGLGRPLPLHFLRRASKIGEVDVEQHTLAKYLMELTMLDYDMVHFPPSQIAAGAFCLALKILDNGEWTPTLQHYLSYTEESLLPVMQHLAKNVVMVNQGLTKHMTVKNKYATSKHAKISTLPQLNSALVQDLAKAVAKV
The data set can be described thus: CDK1 Screening Assay. It counts as biochemical.

Data set [3] concerns the target T2, HER2 cytoplasmic domain (Homo sapiens, UniProt P04626).
T2 construct: polyhistidine (N)
Put plainly: HER2 Kinase Screening Assay. In kind it is biochemical. The settings on record: > means no observed 50% inhibition at the indicated test concentration; ~ means approximately 50% inhibition at that concentration.

The test system of data set [4] is A375 malignant melanoma. The data set can be described thus: Inhibition of in vitro cell proliferation (A375).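 Also: cells plated for 24 h, given compound for 24 h, then labelled with 14C-thymidine for another 24 h, with DMSO-only wells as control and counts read by scintillation.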 The following applies: Homo sapiens, A-375, 14C-thymidine incorporation. In kind it is cell-based, human. (Uptake of a labelled nucleoside into DNA is a usual measure of proliferation.)
For data set [5], the system named is HCT-116 colon carcinoma. The data set can be described thus: Inhibition of in vitro cell proliferation (HCT116).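 Also: cells exposed to compound for 24 h, then 14C-thymidine added for a further 24 h and its uptake into DNA counted by scintillation, DMSO-only wells as control.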 It counts as cell-based, human. The following applies: Homo sapiens, HCT-116, 14C-thymidine incorporation.
Data set [6] has as its target T3, murine Aurora-A (Mus musculus, UniProt P97477).
T3 construct: replaced with the full length protein encoding the murine Aurora-A; made in house; host or cells: sf9 insect cells
T3 sequence (P97477 1-395): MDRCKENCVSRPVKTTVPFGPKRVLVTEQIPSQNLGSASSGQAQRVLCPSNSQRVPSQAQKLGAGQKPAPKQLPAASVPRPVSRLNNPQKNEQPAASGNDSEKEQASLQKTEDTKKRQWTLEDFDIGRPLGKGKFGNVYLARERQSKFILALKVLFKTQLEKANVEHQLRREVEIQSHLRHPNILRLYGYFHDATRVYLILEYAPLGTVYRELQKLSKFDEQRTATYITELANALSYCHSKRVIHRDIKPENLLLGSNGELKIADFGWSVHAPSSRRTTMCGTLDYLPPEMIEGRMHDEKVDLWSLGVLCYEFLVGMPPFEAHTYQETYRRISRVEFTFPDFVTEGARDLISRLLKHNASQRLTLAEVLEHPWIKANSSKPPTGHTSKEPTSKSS
Put plainly: Aurora-A Screening Assay. In kind it is biochemical.

For data set [7], the target named is T4, rat VEGF-R2 kinase domain (Rattus norvegicus, UniProt O08775).
T4 construct: amino acids 786-1343 of the rat VEGF-R2 kinase domain; polyhistidine (N)
T4 sequence (O08775 786-1343): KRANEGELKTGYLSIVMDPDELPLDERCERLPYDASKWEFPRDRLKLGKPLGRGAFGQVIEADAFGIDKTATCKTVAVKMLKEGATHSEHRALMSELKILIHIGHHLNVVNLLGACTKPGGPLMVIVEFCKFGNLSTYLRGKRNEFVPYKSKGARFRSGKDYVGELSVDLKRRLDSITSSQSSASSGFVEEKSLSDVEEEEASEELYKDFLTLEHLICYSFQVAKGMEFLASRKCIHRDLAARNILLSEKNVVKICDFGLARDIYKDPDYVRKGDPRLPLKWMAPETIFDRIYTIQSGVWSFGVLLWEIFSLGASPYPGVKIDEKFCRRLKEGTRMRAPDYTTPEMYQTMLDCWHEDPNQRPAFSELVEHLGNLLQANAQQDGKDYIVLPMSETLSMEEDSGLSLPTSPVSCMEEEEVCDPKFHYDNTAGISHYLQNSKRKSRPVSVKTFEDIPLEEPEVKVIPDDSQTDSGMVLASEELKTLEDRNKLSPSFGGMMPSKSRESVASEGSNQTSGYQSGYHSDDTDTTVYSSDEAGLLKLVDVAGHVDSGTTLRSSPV
Put plainly: VEGF-R2 Screening Assay. In kind it is biochemical. The settings on record: > means no observed 50% inhibition at the indicated test concentration; ~ means approximately 50% inhibition at that concentration; read-out: IC50 VEGF-R2.

Data set [8] relates to HeLa cervical adenocarcinoma. Put plainly: Inhibition of in vitro cell proliferation (HeLa).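 Also: cells exposed to compound for 24 h, then labelled 24 h with methyl 14C-thymidine, with uptake into DNA counted by scintillation against DMSO-only control wells.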 In kind it is cell-based, human. The settings on record: Homo sapiens, 14C-thymidine incorporation.
The target in data set [9] is T5, RET cytoplasmic domain (Homo sapiens, UniProt P07949).
T5 construct: the RET cytoplasmic domain consisting of the last 492 amino acids of the intracellular domain; histidine tag (N); made in house; host or cells: Hi5 insect cells
T5 sequence (P07949 658-1114 limits assumed): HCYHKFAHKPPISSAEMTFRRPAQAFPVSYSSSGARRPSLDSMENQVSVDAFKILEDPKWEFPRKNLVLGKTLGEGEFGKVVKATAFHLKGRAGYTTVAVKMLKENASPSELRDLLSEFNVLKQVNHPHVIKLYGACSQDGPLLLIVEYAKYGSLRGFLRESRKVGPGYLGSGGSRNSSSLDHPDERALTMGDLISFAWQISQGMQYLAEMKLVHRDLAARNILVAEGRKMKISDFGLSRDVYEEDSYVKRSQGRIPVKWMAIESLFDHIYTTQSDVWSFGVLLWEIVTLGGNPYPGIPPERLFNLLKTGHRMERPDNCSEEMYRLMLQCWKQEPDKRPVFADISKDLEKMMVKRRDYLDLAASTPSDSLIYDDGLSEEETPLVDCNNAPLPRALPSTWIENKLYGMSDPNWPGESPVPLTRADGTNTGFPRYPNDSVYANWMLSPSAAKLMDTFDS
The data set can be described thus: RET Kinase Screening Assay. In kind it is biochemical.

Bounds are passed on as bounds.

What is called IC50 is the concentration at which inhibition is half-maximal.

T2 sequence (P04626 676-1255 limits assumed): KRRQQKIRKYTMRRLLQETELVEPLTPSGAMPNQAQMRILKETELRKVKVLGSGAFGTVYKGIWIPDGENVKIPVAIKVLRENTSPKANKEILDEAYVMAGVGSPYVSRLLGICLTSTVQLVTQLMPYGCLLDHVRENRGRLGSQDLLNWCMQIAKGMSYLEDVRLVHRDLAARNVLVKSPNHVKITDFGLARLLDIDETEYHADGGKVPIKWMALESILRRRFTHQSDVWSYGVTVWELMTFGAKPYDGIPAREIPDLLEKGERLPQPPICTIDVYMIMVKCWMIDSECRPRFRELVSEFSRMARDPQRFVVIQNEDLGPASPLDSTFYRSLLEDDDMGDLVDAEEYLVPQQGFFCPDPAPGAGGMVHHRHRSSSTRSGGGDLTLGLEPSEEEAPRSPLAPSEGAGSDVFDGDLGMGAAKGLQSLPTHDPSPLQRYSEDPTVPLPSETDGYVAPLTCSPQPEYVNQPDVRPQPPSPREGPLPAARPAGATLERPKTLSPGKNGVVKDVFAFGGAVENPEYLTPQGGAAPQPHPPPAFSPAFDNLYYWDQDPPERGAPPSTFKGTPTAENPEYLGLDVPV

Take “1-{4-[6-amino-5-(methoxyimino-methyl)-pyrimidin-4-yloxy]-2-chloro-phenyl}-3-ethyl-urea [Cpd 50]”: the “body weights at study end” value in [1] is “comparable”.

Take `CON=Cc1c(NOC)ncnc1Oc1ccc2[nH]ccc2c1` [Cpd 4, 4-(1H-indol-5-yloxy)-6-methoxyamino-pyrimidine-5-carbaldehyde O-methyl-oxime]: the concentration for half-maximal inhibition (IC50) was greater than 100 µM in [2]; greater than 10 µM in [3]; greater than 10 µM in [4]; 38.3 µM in data set [5]; greater than 100 µM in data set [6]; 4.77 µM in data set [7]. The 50% inhibitory concentration (IC50) in data set [8] is greater than 10 µM; in data set [9] it was roughly 100 µM.

Regarding `CCNC(=O)Nc1ccc(Oc2ncnc(N)c2C=NOC)cc1C` [Cpd 66, 1-{4-[6-amino-5-(methoxyimino-methyl)-pyrimidin-4-yloxy]-2-methyl-phenyl}-3-ethyl-urea], the half-inhibitory concentration (IC50) in data set [2] is greater than 100 µM; in data set [3], greater than 100 µM; in data set [4], greater than 100 µM; in [5], greater than 100 µM; in data set [6] it was greater than 100 µM; in data set [7], 0.18 µM. In addition, the half-maximal inhibitory concentration (IC50) in [8] is greater than 100 µM; in [9], greater than 10 µM.

For the origin of these results see patent US8013153B2, “Substituted pyrimidine kinase inhibitors” (Janssen Pharmaceutica, N.V., priority 2006, dated 2011).
